# In publication PMC10794144, “A novel antibiotic class targeting the lipopolysaccharide transporter” (Nature, 2024):
# Marks after values point to notes of the source that are not given here.
# How the values were obtained:
# S. aureus ATCC 29213 = experiment: organism not typed
# Procedure: MIC determinations were performed using the broth microdilution method and in line with CLSI guidelines M07 and M100 (refs. [37],[38]). Bacterial inocula were prepared by diluting a 0.5 McFarland suspension in CAMHB or lysogeny broth (LB) specifically for A. baylyi isolates. […] MIC values of all of the tested antibiotics were read as the lowest compound concentration inhibiting bacterial growth by naked eye or beyond which the OD600 ceased to decrease.
# C. albicans ATCC 90028 = experiment: microbe, parasite or virus in culture; conditions: Candida albicans, ATCC90028
# HEK293 cells = experiment: Cell-viability assay (CellTiterGlo); type: cell-based; conditions: Homo sapiens, 24 h, 37 °C, 3.125–100 μM, n = 2
# Procedure: Compounds were prepared in serial dilutions (3.125–100 μM in 1% DMSO) and transferred to 384-well plates together with a positive (Staurosporine) and a negative (no compound) control. In total, 25 μl of HEK293 cells (ATCC; verified by short tandem repeat PCR and mycoplasma negative) (50,000 cells per ml) were added in either low-serum-containing (0.5% fetal bovine serum (FBS)) or high-serum-containing (12.5% FBS, 1% BSA) medium (Dulbecco’s modified Eagle medium (DMEM), glucose, L-glutamine). The plates were incubated for 24 h at 37 °C and a mixture of CellTiterGlo and DMEM was added to the plates. After incubation at room temperature, the luminescence signal was read using a BioTeK reader and a calculated IC50 was derived from the data.
# A. baumannii = experiment: Neutropaenic mouse thigh infection model; type: in vivo; conditions: ACC00535; neutropaenic mice; s.c. every 4 h for 24 h
# Procedure: An intramuscular inoculation of a bacterial suspension of approximately 10^6 CFU per thigh was used to induce the infection. Treatment started 2 h after infection. […] In the pneumonia model, an intratracheal inoculation of approximately 10^7 CFU per lung was used to induce the infection. Treatment started 2 h after infection. […] Standard of care antibiotic was tested at a single dose in both infection models. GraphPad Prism 8 was used for graphical presentation and to analyse data.
# [1] = Human whole blood haemolysis assay; conditions: human heparinated blood, 4 mg/mL, 10 min 37 °C, haemoglobin at 540 nm
# Procedure: For the in vitro haemolysis test, blood was provided by Roche medical services through an anonymous blood donation for research program, approved by the Ethics Committee Northwestern Switzerland and Central Switzerland (EKNZ) and collected with informed consent. Blood was collected by venipuncture in ethylenediaminetetraacetic acid (EDTA) and Li-heparin-coated tubes. Plasma was prepared from anticoagulated blood by centrifugation (2,500g; 10 min; at room temperature) and the haematocrit was measured to ensure that it was within normal reference values. Each formulation of compound in saline was added at a concentration of 8 mg ml^−1 into test tubes containing exactly 0.5 ml of heparinated blood to give a final assay volume of 1 ml and a concentration of 4 mg ml^−1 or less (following further dilutions). After incubation in a water bath for 10 min at 37 °C, the tubes were centrifuged (10 min, 1,811g at room temperature) and 100 μl of the supernatant was subsequently transferred into test tubes containing 5 ml Drabkins solution (RANDOX Laboratories) and 1 ml phosphate buffer. Haemoglobin was photometrically determined at 540 nm according to the RANDOX test-kit instructions. The results were expressed as percentage haemolysis extrapolated from an internal standard curve with 0%, 50% and 100% haemolysed blood samples.
# [2] = Fraction unbound in mouse plasma; type: in vitro ADME
# [3] = system: GABA-A (benzodiazapine binding site); experiment: Off-target screening (CEREP); set-up: species or system rat; conditions: 10 µM, duplicates
# Procedure: (§1) Supplementary Table 1 │ Off-target activity screening f or MCP compou nds […]
# (§2) The assays given in the table above were conducted at Eurofins CEREP S A (Celle-Lévescault, France) and were run as single point measurements in duplicates in the presence of 10 µ M of the test compound and reported as percent inhibition of the radioligand signal or control enzymatic activity. n.d., not
# [4] = system: GABA Cl- channel receptor; experiment: Off-target screening (CEREP); type: binding, rat; conditions: 10 µM, duplicates
# Procedure: as §1, §2
# [5] = system: Ca2+ channel (diltiazem site); experiment: Off-target screening (CEREP); type: binding, rat; conditions: 10 µM, duplicates
# Procedure: as §1, §2
# PCP receptor = experiment: Off-target screening (CEREP); type: binding, rat; conditions: 10 µM, duplicates
# Procedure: as §1, §2
# panel of 50 off-targets = experiment: Off-target activity screening, number of hits in panel of 50; type: binding; conditions: > 30% inhibition at 10 μM
# [6] = system: GSK-3A (second line so named); experiment: Off-target screening (CEREP); type: biochemical, human; conditions: 10 µM, duplicates
# Procedure: as §1, §2
# [7] = system: Nicotinic receptor, neuronal; experiment: Off-target screening (CEREP); type: binding, human; conditions: 10 µM, duplicates
# Procedure: as §1, §2
# [8] = system: Nicotinic receptor, muscle; experiment: Off-target screening (CEREP); type: binding, human; conditions: 10 µM, duplicates
# Procedure: as §1, §2
# hERG = hERG (Homo sapiens, UniProt Q12809); experiment: hERG
# Sequence of hERG (Q12809 whole entry): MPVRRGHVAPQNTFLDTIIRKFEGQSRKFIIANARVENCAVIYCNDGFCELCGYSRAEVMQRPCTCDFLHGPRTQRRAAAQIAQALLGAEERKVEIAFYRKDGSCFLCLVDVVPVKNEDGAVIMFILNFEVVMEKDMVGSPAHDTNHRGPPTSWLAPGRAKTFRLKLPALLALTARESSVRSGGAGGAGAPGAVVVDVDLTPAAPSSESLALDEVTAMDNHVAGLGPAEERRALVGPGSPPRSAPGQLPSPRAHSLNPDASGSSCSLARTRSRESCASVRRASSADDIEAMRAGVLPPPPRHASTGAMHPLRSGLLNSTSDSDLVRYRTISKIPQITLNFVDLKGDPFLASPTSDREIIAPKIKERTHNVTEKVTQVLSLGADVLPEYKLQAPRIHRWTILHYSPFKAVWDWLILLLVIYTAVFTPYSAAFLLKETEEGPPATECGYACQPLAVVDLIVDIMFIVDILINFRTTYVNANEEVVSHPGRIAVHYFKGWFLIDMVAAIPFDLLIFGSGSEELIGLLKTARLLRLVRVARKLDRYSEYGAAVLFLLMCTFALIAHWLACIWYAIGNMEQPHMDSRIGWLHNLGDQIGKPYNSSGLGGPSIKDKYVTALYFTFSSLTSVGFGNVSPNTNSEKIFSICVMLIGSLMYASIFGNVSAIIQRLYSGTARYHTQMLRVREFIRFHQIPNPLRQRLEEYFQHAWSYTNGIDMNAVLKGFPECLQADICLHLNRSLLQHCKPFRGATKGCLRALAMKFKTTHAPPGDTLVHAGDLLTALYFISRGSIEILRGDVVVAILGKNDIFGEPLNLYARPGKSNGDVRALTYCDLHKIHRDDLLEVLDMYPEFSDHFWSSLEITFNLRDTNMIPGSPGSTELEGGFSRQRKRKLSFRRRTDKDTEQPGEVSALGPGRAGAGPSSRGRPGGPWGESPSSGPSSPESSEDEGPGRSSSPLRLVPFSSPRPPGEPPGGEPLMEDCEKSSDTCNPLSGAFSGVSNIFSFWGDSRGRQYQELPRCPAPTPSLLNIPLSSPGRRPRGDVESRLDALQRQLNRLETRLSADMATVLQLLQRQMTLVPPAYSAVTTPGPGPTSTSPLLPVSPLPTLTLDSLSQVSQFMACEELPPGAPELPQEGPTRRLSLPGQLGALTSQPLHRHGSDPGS
smiles,measurement,setting,value
CN1C(=O)[C@H](CCCN)NC(=O)[C@H](CCCN)NCc2ccccc2Sc2ccccc2CNC(=O)[C@@H]1Cc1c[nH]c2ccccc12 [RO7036668],MIC,S. aureus ATCC 29213; Gram-positive bacteria and yeast,32 to 64 µg/mL
same,MIC,"S. aureus ATCC 29213; Staphylococcus aureus, ATCC29213, CAMHB, mode of at least three replicates (RO7036668 one replicate)",32 µg/mL
same,MIC,C. albicans ATCC 90028,64 µg/mL
same,IC50,HEK293 cells,> 100 µM
CN1C(=O)[C@H](CCCCN)NC(=O)[C@H](CCCN)NCc2cccnc2Sc2c(Cl)ccc(Cl)c2CNC(=O)[C@@H]1Cc1c[nH]c2ccccc12 [RO7075573],MIC,"S. aureus ATCC 29213; Staphylococcus aureus, ATCC29213",> 64 µg/mL
same,MIC 100%,S. aureus ATCC 29213; Study LGC281440,>64 µg/mL
same,MIC 100%,S. aureus ATCC 29213; Study LGC282160,>64 µg/mL
same,MIC 100%,S. aureus ATCC 29213; Study LGC284879,>64 µg/mL
same,MIC 100%,S. aureus ATCC 29213; Study LGC285582,>64 µg/mL
same,MIC 100%,S. aureus ATCC 29213; Study LGC286210,64 µg/mL
same,MIC 100%,S. aureus ATCC 29213; Study LGC293598,>64 µg/mL
same,MIC 100%,S. aureus ATCC 29213; Study LGC294355,>64 µg/mL
same,MIC 100%,S. aureus ATCC 29213; Study LGC295147,64 µg/mL
same,MIC 100%,S. aureus ATCC 29213; Study LGC296813,>64 µg/mL
same,MIC 100%,S. aureus ATCC 29213; Study LGC299544,64 µg/mL
same,MIC 100%,S. aureus ATCC 29213; Study LGC301026,>64 µg/mL
same,MIC 100%,S. aureus ATCC 29213; Study LGC308175,>64 µg/mL
same,MIC 100%,S. aureus ATCC 29213; Study ROC010,32 µg/mL
same,MIC 100%,S. aureus ATCC 29213; Study ROC012,32 µg/mL
same,Decrease in thigh bacterial burden,A. baumannii,> 4 log CFU
same,Haemolysis,[1],37%
same,"fu (m), fraction unbound in mouse plasma",[2],17%
same,percent inhibition,[3],-20%
same,MIC,C. albicans ATCC 90028,> 64 µg/mL
same,percent inhibition,[4],-9%
same,percent inhibition,[5],-1%
same,percent inhibition,PCP receptor,-10%
same,Off-target hits,panel of 50 off-targets,1 #
same,IC50,HEK293 cells,> 100 µM
same,percent inhibition,[6],10%
same,percent inhibition,[7],-7%
same,percent inhibition,[8],5%
same,IC50,hERG,> 10 µM
same,hERG IC20,hERG,4 µM
